Columns and labels:
[1] = tested on: apomorphine-elicited agitation and stereotypes in rats; experiment: Antiapomorphine action in rats; assay type: in vivo; conditions: for antiapomorphine effect: 50 mg/kg, oral; for effect on apomorphine-elicited agitation / effect on apomorphine-elicited stereotypes: 20 and 50 mg/kg, by 2 h after administration
[2] = tested on: homovanillic acid in corpus striatum; experiment: Homovanillic acid level in corpus striatum of the rat brain; assay type: in vivo
[3] = tested on: dopamine levels in corpus striatum; experiment: Dopamine level in corpus striatum of the rat brain; assay type: in vivo; conditions: for dopamine level, striatum: 20 mg/kg, in words
[4] = tested on: cataleptogenic effect of perphenazine in rats; experiment: Potentiation of the cataleptogenic effect of perphenazine in rats; assay type: in vivo; conditions: 50 mg/kg, oral
Experimental: A further compound of the invention is 1-(2-chloro-7-fluoro-10, 11-dihydrodibenzo (b,f) thiepin-10-yl)-4-(2-(1,3-dioxolan-2-yl)ethyl)piperazine, which also was tested as the methanesulfonate (compound B). This compound and the following ones were likewise administered orally, and the data is calculated per bases.
(§1) The invention further includes 1-(2-chloro-7-fluoro-10, 11-dihydrodibenzo (b,f) thiepin-10-yl)-4-(2-(1,3-dioxan-2-yl) ethyl)piperazine, which is also tested as the methanesulfonate (compound C).

Solubility in water = assay type: physicochemical
[5] = Overall antidopaminergic / neuroleptic activity and pharmacological profile; conditions: in words
in vivo = conditions: mouse, po
rats = experiment: Cataleptic activity in rats; conditions: for cataleptic activity: rats, 50 mg/kg, oral
[6] = Rota-rod test in mice (motor coordination); conditions: mouse, po
[7] = Acute toxicity in mice, intravenous administration; conditions: mouse, in vivo
Experimental: as §1

[8] = target: T1, dopamine receptors in corpus striatum (Rattus norvegicus, UniProt P61169); experiment: Inhibition of 3H-spiperone binding, corpus striatum
T1 construct: dopamine receptors in the two brain structures; from tissue; host or cells: rat brain, corpus striatum

[9] = tested on: spontaneous locomotor activity in mice; experiment: Inhibition of spontaneous locomotor activity in mice; assay type: in vivo; conditions: for times less active than compound A, inhibition of spontaneous locomotor activity: mice, relative to compound A
[10] = tested on: dopamine levels in tuberculum olfactorium; experiment: Dopamine level in tuberculum olfactorium of the rat brain; assay type: in vivo; conditions: 20 mg/kg, in words
[11] = tested on: apomorphine-induced climbing behavior of mice; experiment: Apomorphine-induced climbing behavior of mice; assay type: in vivo
motility of mice = conditions: Mus musculus, po, read-out: medium effective dose, motility of mice
[12] = tested on: apomorphine emesis in dogs; experiment: Inhibition of apomorphine emesis in dogs; assay type: in vivo
[13] = tested on: homovanillic acid in tuberculum olfactorium; experiment: Homovanillic acid level in tuberculum olfactorium of the rat brain; assay type: in vivo; conditions: 3 h after the administration
mice = conditions: mouse, in vivo, po
[14] = Acute toxicity in rats (oral); conditions: rat, in vivo
[15] = Rota-rod test in rats (motor coordination); conditions: rat, po

T1 sequence (P61169 whole entry): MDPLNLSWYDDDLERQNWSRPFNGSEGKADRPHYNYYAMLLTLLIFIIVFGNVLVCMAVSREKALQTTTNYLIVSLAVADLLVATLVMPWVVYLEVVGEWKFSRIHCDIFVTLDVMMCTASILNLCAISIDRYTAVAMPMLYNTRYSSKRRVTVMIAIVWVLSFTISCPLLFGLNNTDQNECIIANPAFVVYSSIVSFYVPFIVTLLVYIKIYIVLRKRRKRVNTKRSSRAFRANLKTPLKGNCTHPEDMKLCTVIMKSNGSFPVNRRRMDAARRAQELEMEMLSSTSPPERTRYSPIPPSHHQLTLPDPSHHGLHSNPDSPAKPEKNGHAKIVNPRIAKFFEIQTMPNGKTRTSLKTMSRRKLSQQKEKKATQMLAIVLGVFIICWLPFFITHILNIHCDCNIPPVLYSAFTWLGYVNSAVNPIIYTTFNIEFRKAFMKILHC

Row | SMILES | antiapomorphine effect [1] | increase of homovanillic acid level in striatum ([2]; rat, 80 mg/kg, 3 h, oral) | potentiation of the cataleptogenic effect of perphenazine [4] | solubility in water (Solubility in water; monomethanesulfonate) | solubility in water (Solubility in water; neutral maleate) | pharmacological profile compared with compound A [5] | LD50 (in vivo; LD50, mice, per base) [mg/kg] | cataleptic activity (rats) | TD50 [6] [mg/kg] | increase of homovanillic acid level in striatum ([2]; rat, 20 mg/kg, 3 h) [%] | dopamine level, striatum [3] | times less active than compound A, inhibition of spontaneous locomotor activity [9] | effect on apomorphine-elicited agitation [1] | effect on apomorphine-elicited stereotypes [1] | dopamine level, tuberculum olfactorium [10] | also measured
1 | Fc1ccc2c(c1)Sc1ccc(Cl)cc1CC2N1CCN(CCC2OCCO2)CC1 (stereo not shown) [Compound B, 1-(2-chloro-7-fluoro-10, 11-dihydrodibenzo (b,f)thiepin-10-yl)-4-(2-(1,3-dioxolan-2-yl)ethyl)piperazine] | only a slight indication of antiapomorphine effect | 504% | only mildly potentiates the cataleptogenic effect of perphenazine | readily water-soluble | slightly soluble in water | approximately comparable | 350 | no cataleptic effect | 3.5 |  |  |  |  |  |  | lowering of dopamine level in striatum ([3]; 80 mg/kg, 3 h): 25%; solubility in water (Solubility in water; monomethanesulfonate, listed as Example 3): excellently water-soluble; solubility (Solubility in water; water, monomethanesulfonate, aqueous solution, read-out: concentration of aqueous solutions provided): > 100 mg/mL
2 | Fc1ccc2c(c1)Sc1ccc(Cl)cc1CC2N1CCN(CCC2OCCCO2)CC1 (stereo not shown) [Compound C, 1-(2-chloro-7-fluoro-10, 11-dihydrodibenzo (b,f)thiepin-10-yl)-4-(2-(1,3-dioxan-2-yl)ethyl)piperazine] | does not reveal any antiapomorphine effect |  | only mildly potentiates the cataleptogenic effect of perphenazine | excellently water-soluble | poorly soluble in water | approximately comparable | > 500 | no cataleptic effect | 2.86 | 400 | the dopamine level is not affected |  |  |  |  | LD50 [7]: 77.6 mg/kg; affinity to dopamine receptors in striatum, release of 3H spiperone ([8]; striatum, in words, compared with clozapine): approximately the same as with clozapine; solubility in water (Solubility in water; neutral maleate, listed as Example 4): only very slightly soluble in water
3 | CN1CCN(C2=Nc3cc(Cl)ccc3Nc3ccccc32)CC1 [clozapine, 8-chloro-11-(4-methylpiperazine)-5H-dibenzo (b,e)-(1,4)diazepine, reference compound] |  |  |  |  |  |  |  | behaves similarly |  | 200 | slightly decreases dopamine levels | approx. 4 times | effects neither agitation nor stereotypes | effects neither agitation nor stereotypes | slightly decreases dopamine levels | 
4 | CN(C)CCCN1c2ccccc2Sc2ccc(Cl)cc21 [chlorpromazine, reference compound] |  |  |  |  |  |  |  |  |  |  |  | 5 times |  |  |  | activity relative to compound A, climbing behavior ([11]; mice, % of activity of compound A): approx. 50%
5 | NC(CCN1CCN(C2Cc3cc(Cl)ccc3Sc3cc(F)ccc32)CC1)=NO (stereo not shown) [Compound D] |  | more than 300% |  |  |  | approximately comparable |  |  |  |  |  |  |  |  |  | LD50 (in vivo): 320 mg/kg; ED50 (motility of mice): 50 mg/kg
6 | NC(=O)CCN1CCN(C2Cc3cc(Cl)ccc3Sc3cc(F)ccc32)CC1 (stereo not shown) [Compound A] |  |  |  | excellently water-soluble | poorly soluble in water |  |  | lacks cataleptic activity | 2 |  | does not significantly affect the dopamine levels |  | significantly inhibits the agitation | does not affect the apomorphine-elicited stereotypes | does not significantly affect the dopamine levels | ED50 ([9]; Mus musculus, po, read-out: medium active dose D50, inhibition of spontaneous locomotor activity): 1.05 mg/kg; minimal effective dose ([12]; Canis lupus familiaris, oral, by 4 h after the administration, read-out: threshold activity dose, inhibition of apomorphine emesis): 2 mg/kg; inhibition of apomorphine emesis, duration ([12]; within 24 h): within 24 h the effect disappears; ED50 ([11]; Mus musculus, po, read-out: medium effective dose PD50, apomorphine-induced climbing behavior): 2.9 mg/kg; minimal effective dose ([2]; Rattus norvegicus, po, 3 h, read-out: threshold dose significantly increasing homovanillic acid concentration, corpus striatum): 5 mg/kg; level of homovanillic acid, corpus striatum ([2]; rat, 3 h after the administration): intensively increases; level of homovanillic acid, tuberculum olfactorium [13]: intensively increases; minimal effective dose ([13]; oral, read-out: threshold dose significantly increasing homovanillic acid concentration, tuberculum olfactorium): 2 mg/kg; IC50 [8]: 49.7 nM; LD50 on longer evaluation of the toxicity test (mice): lower LD50 values; LD50 at 48 h (in vivo; LD50, female mice, per base): 316 mg/kg; LD50 at 48 h (in vivo; LD50, male mice, per base): 336 mg/kg; cataleptic activity (general statement) (rats; compounds of the invention, in words): noncataleptic; LD50 [14]: 654 mg/kg; TD50 [15]: 19.5 mg/kg
